Patent US20050009925A1, “Use of norepinephrine reuptake inhibitors for the treatment of cognitive failure” (priority 2001, published 2005)

Tested on: c-fos
Test: c-fos activation (Fos-like immunoreactivity) in rat brain after atomoxetine
Type: in vivo
Conditions: rats, 3 mg/kg i.p., two hours after administration
Procedure: The immediate-early gene, c-fos, and its protein products have been increasingly utilized as markers for neuronal activation (Dragunow and Faull, J. Neurosci. Methods, 29, 261-265 (1989); Morgan and Curran, Prog. In Brain Res., 86, 287-294 (1990); Robertson, et al., J. Pharmacol. Exp. Ther., 271, 1058-1066 (1994)). C-fos activation is measured as illustrated below for atomoxetine.
Two hours after administration of atomoxetine (3 mg/kg, i.p.), the rats were deeply anesthetized with sodium pentobarbital (60 mg/kg, i.p.) and transcardially perfused with 100 ml of phosphate buffered saline (PBS) followed by 100 ml of 4% paraformaldehyde in PBS. The brain was rapidly removed, postfixed for 90 min in 4% paraformaldehyde and then was transferred to 30% sucrose at […] until saturated. After quick freezing, serial 30 μm sections were cut and placed in PBS until processed for immunohistochemistry. In brief, sections were incubated in PBS containing blocking serum and 0.5% Triton-X 100 for 1 hour. Sections were then incubated with anti-Fos antibody (Santa Cruz Biotechnology, Inc.) at 4° C. overnight. Visualization of the Fos-like immunoreactivity was performed with a Vectastain ABC Elite Kit (Vector Labs, Burlingame, Calif.) using the standard protocol supplied with the kit. Nickel-intensified diaminobenzidine (DAB) was used as the chromagen to yield a gray-black precipitation product. Following visualization of the Fos immunoreactivity, the sections were mounted on gelatin-coated glass slides and allowed to dry. The sections were then dehydrated and cover slipped. Fos expressing cells were quantitated using the MCID M2 imaging system (Imaging Research, St. Catherines, Ontario).

CNCC[C@@H](Oc1ccccc1C)c1ccccc1 [Atomoxetine, (R)-(−)-N-methyl-3-(2-methylphenoxy)-3-phenylpropylamine]
Fos positive cells, Nucleus Accumbens (nucleus accumbens): 152 ± 44 Fos positive cells/mm^2
Fos positive cells, Prefrontal Cortex (prefrontal cortex): 296 ± 26 Fos positive cells/mm^2
Fos positive cells, Striatum (striatum): 102 ± 35 Fos positive cells/mm^2
expression of c-fos (regional pattern, in words) (summary of the table): increased the expression of c-fos only in the cortical areas
